In patent US20140357512A1, “HISTONE DEACETYLASE (HDAC) BIOMARKERS IN MULTIPLE MYELOMA” (priority 2013, published 2014):

Tested on: human myeloma cell line MM.1S
Assay: SILAC acetylated-lysine peptide profiling, HDAC inhibitor vs DMSO (light/heavy ratio)
Format: cell-based
From the text: An embodiment of the invention comprises utilizing the SILAC method in order to quantitate changes in protein expression between two or more populations of cells. The SILAC method is a technique based on mass spectrometry that detects differences in protein abundance among samples using non-radioactive isotopic labeling. The SILAC method is known in the art, and described in detail in Ong et al., “Stable Isotope Labeling by Amino Acids in Cell Culture, SILAC, as a Simple and Accurate Approach to Expression Proteomics”, Molecular & Cellular Proteomics, vol. 1, pp. 376-386 (2002), which is incorporated herein by reference in its entirety.
Briefly, the SILAC method involves growing two populations of cells in cell culture. The first population of cells is grown in growth media containing normal amino acids (“normal media”). The second population of cells is grown in media lacking a standard essential amino acid (such as lysine), but is then supplemented with a non-radioactive, isotopically labeled form of that essential amino acid (such as lysine labeled with ^13C atoms, rather than normal ^12C atoms), which is called “heavy media”. When the two populations of cells are each growing in the medium, they incorporate the amino acids into all of their proteins. The growth of cells maintained in the heavy media is no different from that in normal media. All peptides containing the heavy amino acids are heavier than their normal counterparts. The cells from each of the two populations of cells are lysed. The lysates from each of the two cell populations are then combined. The combined cell lysates are then analyzed by mass spectrometry. Pairs of chemically identical peptides of different stable isotope composition can be differentiated in a mass spectrometer due to their difference in mass. The ratio of peak intensities in the mass spectrum for such peptide pairs reflects the abundance ratio for the two proteins.
This example describes SILAC studies that were performed to compare the effects of three different HDAC inhibitors (Compound A, Compound B, and tubastatin A) to a control on a human multiple myeloma cell line. The HDAC inhibitors were also compared amongst themselves to determine differences in their effects.
A human myeloma cell line MM.1S was grown using either ^12C (light) or ^13C (heavy) lysine containing culture medium. The “heavy” cells were treated with DMSO as the control, and the “light” cells were treated with a single HDAC inhibitor at 37° C. for 6 hours. The heavy and light cells were lysed, and the lysates were mixed in 1:1 ratio and digested with the protease trypsin. The acetylated lysine containing peptides (due to the action of the HDAC inhibitor) in the digested peptide pool were captured by a non-specific anti-acetylated lysine antibody cocktail (the antibodies identify both light and heavy acetylated peptides), and subjected to mass spectrometry analysis in order to identify thousands of individual peptides.
Thousands of peptides were identified in pairs (^12C and ^13C) due to their known mass differences. The amino acid sequence and quantitative ratio (Light/Heavy) of a given peptide in two differentially treated cell lysates were then determined and annotated with their possible protein (gene) sources.
As stated above, three HDAC inhibitors (Compound A, Compound B, and Tubastatin A) were used. Thus, the SILAC method was performed three times, with a different HDAC inhibitor compared to a control each time. Accordingly, there are three pairs of quantitative data in the table below, i.e., Compound A:DMSO, Compound B:DMSO, and Tubastatin A:DMSO. A cut-off of 1.30 fold of change (increase or decrease) was then used to determine “changed” or “+” in the table, and any peptides with a fold of change less than 1.3 fold were determined to be “unchanged” or “0” in the table. Those peptides that were not identified were marked as “NA” in the table. […]

CN1CCc2c(c3ccccc3n2Cc2ccc(C(=O)NO)cc2)C1 [Tub A]
L/H ratio of acetylated peptide MYFDK(ac)YVLKPATEGK (SEQ ID NO: 23) (ATAD3A [491], log 2 scale, drug vs DMSO): 0.62
L/H ratio of acetylated peptide IVEYEK(ac)EMEK (SEQ ID NO: 24) (ATP5H [117], log 2 scale, drug vs DMSO): 0.63
L/H ratio of acetylated peptide YYNK(ac)YINVK (SEQ ID NO: 12) (ATP5J2 [54], log 2 scale, drug vs DMSO): 0.66
light to heavy ratio (L/H ratio) of acetylated peptide QNK(ac)LEQVEK (SEQ ID NO: 271) (ATP synthase subunit O mitochondrial [54], ATP50, drug:DMSO): 0.45 log 2
light to heavy ratio (L/H ratio) of acetylated peptide STVAQLVK(ac)R (SEQ ID NO: 552) (ATP synthase subunit alpha mitochondrial [261], gene ATP5A1, inhibitor:DMSO): 0.00 log 2
light to heavy ratio (L/H ratio) of acetylated peptide ISEQSDAK(ac)LK (SEQ ID NO: 600) (ATP synthase subunit alpha mitochondrial [539], gene ATP5A1, inhibitor:DMSO): 0.00 log 2
light to heavy ratio (L/H ratio) of acetylated peptide HVVQSISTQQEK(ac)ETIAK (SEQ ID NO: 307) (ATP synthase subunit b mitochondrial [233], ATP5F1, drug:DMSO): 0.62 log 2
light to heavy ratio (L/H ratio) of acetylated peptide IVNSAQTGSFK(ac)QLTVK (SEQ ID NO: 279) (ATP synthase subunit g mitochondrial [66], ATP5L, drug:DMSO): 0.77 log 2
light to heavy ratio (L/H ratio) of acetylated peptide ELDPIQK(ac)LFVDK (SEQ ID NO: 365) (ATP synthase-coupling factor 6 mitochondrial [41], ATP5J, drug:DMSO): 0.00 log 2
light to heavy ratio (L/H ratio) of acetylated peptide FEDPK(ac)FEVIEKPQA (SEQ ID NO: 325) (ATP synthase-coupling factor 6 mitochondrial [99], ATP5J, drug:DMSO): 0.00 log 2
light to heavy ratio (L/H ratio) of acetylated peptide, log 2 scale (AVEEK(ac)IEWLESHQDADIEDFK (SEQ ID NO: 172), 78 kDa glucose-regulated protein [601], HSPA5): −0.54
light to heavy ratio (L/H ratio) of acetylated peptide, log 2 scale (AVIWPQYVK(ac)DR (SEQ ID NO: 156), cDNA FLJ59630 highly similar to Growth hormone-inducible transmembrane protein [124], GHITM): 0.47
light to heavy ratio (L/H ratio) of acetylated peptide, log 2 scale (AVK(ac)HAEELER (SEQ ID NO: 225), Isoform 2 of Signal recognition particle 68 kDa protein [164], SRP68): −1.00
light to heavy ratio (L/H ratio) of acetylated peptide, log 2 scale (AYGGSMCAK(ac)CVR (SEQ ID NO: 204), 60S ribosomal protein L34 [85], RPL34): 0.40
L/H ratio of acetylated peptide (AYHLQK(ac)STCGK (SEQ ID NO: 443), 60S ribosomal protein L37 [31], RPL37): 0.00 log 2
light to heavy ratio (L/H ratio) of acetylated peptide AFAK(ac)ELFLGK (SEQ ID NO: 627) (Acyl-CoA dehydrogenase family member 9 mitochondrial [41], gene ACAD9, inhibitor:DMSO): 0.00 log 2
light to heavy ratio (L/H ratio) of acetylated peptide YSAK(ac)DYFFK (SEQ ID NO: 319) (Alpha-soluble NSF attachment protein [203], NAPA, drug:DMSO): 0.44 log 2
light to heavy ratio (L/H ratio) of acetylated peptide PAQGAK(ac)YR (SEQ ID NO: 305) (Annexin A6 [9], ANXA6, drug:DMSO): 0.39 log 2
light to heavy ratio (L/H ratio) of acetylated peptide TKYEK(ac)SLYSMIK (SEQ ID NO: 270) (Annexin A6 [299], ANXA6, drug:DMSO): 0.42 log 2
light to heavy ratio (L/H ratio) of acetylated peptide NDTSGEYK(ac)K (SEQ ID NO: 285) (Annexin A6 [314], ANXA6, drug:DMSO): 0.70 log 2
light to heavy ratio (L/H ratio) of acetylated peptide AINEAYK(ac)EDYHK (SEQ ID NO: 282) (Annexin A6 [478], ANXA6, drug:DMSO): 0.53 log 2
light to heavy ratio (L/H ratio) of acetylated peptide NKPLFFADK(ac)LYK (SEQ ID NO: 298) (Annexin A6 [607], ANXA6, drug:DMSO): 0.51 log 2
light to heavy ratio (L/H ratio) of acetylated peptide GAGTDEK(ac)TLTR (SEQ ID NO: 621) (Annexin A6 [620], gene ANXA6, inhibitor:DMSO): 0.00 log 2
light to heavy ratio (L/H ratio), log 2 scale, acetylated peptide EFIEK(ac)YDK (SEQ ID NO: 779) (Annexin A6 [644], gene ANXA6, drug:DMSO): 0.00
light to heavy ratio (L/H ratio) of acetylated peptide DDNGK(ac)PYVLPSVR (SEQ ID NO: 579) (Aspartate aminotransferase mitochondrial [73], gene GOT2, inhibitor:DMSO): 0.00 log 2
light to heavy ratio (L/H ratio) of acetylated peptide ELK(ac)EIQYGIR (SEQ ID NO: 540) (Branched-chain-amino-acid aminotransferase [337], gene BCAT2, inhibitor:DMSO): 0.00 log 2
light to heavy ratio (L/H ratio), log 2 scale, acetylated peptide ESCSK(ac)HASGTSFHLPQPSFR (SEQ ID NO: 780) (Bromodomain and PHD finger-containing protein 3 [105], gene BRPF3, drug:DMSO): 0.00
L/H ratio of acetylated peptide FYGDEEK(ac)DKGLQTSQDAR (SEQ ID NO: 25) (CALR [62], log 2 scale, drug vs DMSO): −0.97
light to heavy ratio (L/H ratio) of acetylated peptide AGLQVYNK(ac)CWK (SEQ ID NO: 260) (CD59 glycoprotein [63], CD59, drug:DMSO): −0.45 log 2
L/H ratio of acetylated peptide ALEHFTDLYDIK(ac)R (SEQ ID NO: 26) (CLTC [637], log 2 scale, drug vs DMSO): −0.62
L/H ratio of acetylated peptide FK(ac)ESFAEMNR (SEQ ID NO: 1) (COX4I1 [87], log 2 scale, drug vs DMSO): 0.52
L/H ratio of acetylated peptide […](ac)QLCTIPR (SEQ ID NO: 27) (CREBBP [1216], log 2 scale, drug vs DMSO): 0.60
L/H ratio of acetylated peptide TNK(ac)NK(ac)SSISR (SEQ ID NO: 13) (CREBBP [1595:1597], log 2 scale, drug vs DMSO): 0.64
L/H ratio of acetylated peptide ALK(ac)DLYCHK (SEQ ID NO: 28) (CREM [240], log 2 scale, drug vs DMSO): 0.43
L/H ratio of acetylated peptide LYCPK(ac)CMDVYTPK (SEQ ID NO: 29) (CSNK2B [139], log 2 scale, drug vs DMSO): −0.39
light to heavy ratio (L/H ratio) of acetylated peptide FVLSSGK(ac)FYGDEEKDK (SEQ ID NO: 281) (Calreticulin [55], CALR, drug:DMSO): −0.51 log 2
light to heavy ratio (L/H ratio) of acetylated peptide VHVIFNYK(ac)GK (SEQ ID NO: 273) (Calreticulin [151], CALR, drug:DMSO): −0.58 log 2
light to heavy ratio (L/H ratio) of acetylated peptide NVLINK(ac)DIR (SEQ ID NO: 257) (Calreticulin [159], CALR, drug:DMSO): −0.88 log 2
light to heavy ratio (L/H ratio) of acetylated peptide TCDLVGEK(ac)GK (SEQ ID NO: 289) (Cation-dependent mannose-6-phosphate receptor [38], M6PR, drug:DMSO): −0.81 log 2
light to heavy ratio (L/H ratio) of acetylated peptide EFALK(ac)HLPNDPMFK (SEQ ID NO: 583) (Citrate synthase mitochondrial [366], gene CS, inhibitor:DMSO): 0.00 log 2
light to heavy ratio (L/H ratio), log 2 scale, acetylated peptide MIYASSK(ac)DAIKK (SEQ ID NO: 763) (Cofilin-1 [121], gene CFL1, drug:DMSO): 0.00
light to heavy ratio (L/H ratio) of acetylated peptide AAEEVEAK(ac)FK (SEQ ID NO: 328) (Coiled-coil-helix-coiled-coil-helix domain-containing protein 3 mitochondrial [173], CHCHD3, drug:DMSO): 0.00 log 2
light to heavy ratio (L/H ratio) of acetylated peptide ASEIGEK(ac)YR (SEQ ID NO: 586) (Conserved hypothetical protein [484], gene KIAA0947, inhibitor:DMSO): 0.00 log 2
light to heavy ratio (L/H ratio) of acetylated peptide DHCVAHK(ac)LFNNLK (SEQ ID NO: 608) (Cytochrome b-c1 complex subunit 6 mitochondrial [85], gene UQCRH, inhibitor:DMSO): 0.00 log 2
